Data as given in PubChem BioAssay (NCI).
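GI50 is the concentration that inhibits growth by half. TGI is the concentration that stops growth completely.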

Columns and labels:
Assay in all cases: inhibition of tumour cell growth, NCI panel, 384-well format
A498 renal = system: A498 renal
A549 NSCLC = system: A549 NSCLC
ACHN renal = system: ACHN renal
BT-549 breast = system: BT-549 breast
CAKI-1 renal = system: CAKI-1 renal
COLO 205 colon = system: COLO 205 colon
DU-145 prostate = system: DU-145 prostate
EKVX NSCLC = system: EKVX NSCLC
HCT-116 colon = system: HCT-116 colon
HCT-15 colon = system: HCT-15 colon
HL-60(TB) leukemia = system: HL-60(TB) leukemia
HOP-62 NSCLC = system: HOP-62 NSCLC
HOP-92 NSCLC = system: HOP-92 NSCLC
HS 578T breast = system: HS 578T breast
HT29 colon = system: HT29 colon
IGROV1 ovarian = system: IGROV1 ovarian
K-562 leukemia = system: K-562 leukemia
KM12 colon = system: KM12 colon
M14 melanoma = system: M14 melanoma
MALME-3M melanoma = system: MALME-3M melanoma
MCF7 breast = system: MCF7 breast
MDA-MB-231 breast = system: MDA-MB-231 breast
MDA-MB-435 melanoma = system: MDA-MB-435 melanoma
MDA-MB-468 breast = system: MDA-MB-468 breast
MOLT-4 leukemia = system: MOLT-4 leukemia
NCI-H226 lung = system: NCI-H226 lung
NCI-H23 lung = system: NCI-H23 lung
NCI-H322M lung = system: NCI-H322M lung
NCI-H522 lung = system: NCI-H522 lung
OVCAR-3 ovarian = system: OVCAR-3 ovarian
OVCAR-4 ovarian = system: OVCAR-4 ovarian
OVCAR-5 ovarian = system: OVCAR-5 ovarian
OVCAR-8 ovarian = system: OVCAR-8 ovarian
PC-3 prostate = system: PC-3 prostate
RXF 393 renal = system: RXF 393 renal
SF-268 CNS = system: SF-268 CNS
SF-295 CNS = system: SF-295 CNS
SF-539 CNS = system: SF-539 CNS
SK-MEL-2 melanoma = system: SK-MEL-2 melanoma
SK-MEL-28 melanoma = system: SK-MEL-28 melanoma
SN12C renal = system: SN12C renal
SNB-19 CNS = system: SNB-19 CNS
SNB-75 CNS = system: SNB-75 CNS
SR leukemia = system: SR leukemia
SW-620 colon = system: SW-620 colon
T-47D breast = system: T-47D breast
TK-10 renal = system: TK-10 renal
U251 glioblastoma = system: U251 glioblastoma
UACC-257 melanoma = system: UACC-257 melanoma
UACC-62 melanoma = system: UACC-62 melanoma
UO-31 renal = system: UO-31 renal

For CNC(=O)c1cn(C[C@H](F)CCc2ccc(NC(=O)Cc3cc(OC4CC(F)(F)C4)cc(C)n3)nn2)nn1, which GI50 (A498 renal) is on record?
Its GI50 is 163 nM.

What about the TGI (A498 renal) of the same compound?
The TGI was 492 nM.

What about the GI50 (A549 NSCLC) of the same compound?
Its GI50 is 27.8 nM.

What about the TGI (A549 NSCLC) of the same compound?
The TGI was 87.9 nM.

What about the GI50 (ACHN renal) of the same compound?
Its GI50 is > 100 µM.

What about the TGI (ACHN renal) of the same compound?
The TGI was > 100 µM.

And the GI50 (BT-549 breast)?
Its GI50 is > 100 µM.

What about the TGI (BT-549 breast) of the same compound?
Its TGI is > 100 µM.

What about the GI50 (CAKI-1 renal) of the same compound?
Its GI50 is 380 nM.

What about the TGI (CAKI-1 renal) of the same compound?
The TGI was > 100 µM.

And the GI50 (COLO 205 colon)?
Its GI50 is > 100 µM.

And the TGI (COLO 205 colon)?
Its TGI is > 100 µM.

What about the GI50 (DU-145 prostate) of the same compound?
Its GI50 is 401 nM.

What about the TGI (DU-145 prostate) of the same compound?
Its TGI is 7.68 µM.

And the GI50 (EKVX NSCLC)?
The GI50 was > 100 µM.

What about the TGI (EKVX NSCLC) of the same compound?
Its TGI is > 100 µM.

And the GI50 (HCT-116 colon)?
The GI50 was > 100 µM.

And the TGI (HCT-116 colon)?
Its TGI is > 100 µM.

And the GI50 (HCT-15 colon)?
The GI50 was > 100 µM.

And the TGI (HCT-15 colon)?
Its TGI is > 100 µM.

And the GI50 (HL-60(TB) leukemia)?
Its GI50 is > 100 µM.

What about the TGI (HL-60(TB) leukemia) of the same compound?
The TGI was > 100 µM.

What about the GI50 (HOP-62 NSCLC) of the same compound?
The GI50 was 127 nM.

And the TGI (HOP-62 NSCLC)?
The TGI was 594 nM.

What about the GI50 (HOP-92 NSCLC) of the same compound?
Its GI50 is > 100 µM.

And the TGI (HOP-92 NSCLC)?
The TGI was > 100 µM.

What about the GI50 (HS 578T breast) of the same compound?
The GI50 was 72.1 nM.

And the TGI (HS 578T breast)?
The TGI was 533 nM.

And the GI50 (HT29 colon)?
Its GI50 is > 100 µM.

What about the TGI (HT29 colon) of the same compound?
The TGI was > 100 µM.

What about the GI50 (IGROV1 ovarian) of the same compound?
The GI50 was > 100 µM.

What about the TGI (IGROV1 ovarian) of the same compound?
The TGI was > 100 µM.

And the GI50 (K-562 leukemia)?
Its GI50 is 85.1 µM.

And the TGI (K-562 leukemia)?
The TGI was > 100 µM.

And the GI50 (KM12 colon)?
Its GI50 is 946 nM.

What about the TGI (KM12 colon) of the same compound?
Its TGI is > 100 µM.

And the GI50 (M14 melanoma)?
Its GI50 is > 100 µM.

And the TGI (M14 melanoma)?
Its TGI is > 100 µM.

And the GI50 (MALME-3M melanoma)?
Its GI50 is > 100 µM.

And the TGI (MALME-3M melanoma)?
The TGI was > 100 µM.

What about the GI50 (MCF7 breast) of the same compound?
Its GI50 is > 100 µM.

And the TGI (MCF7 breast)?
Its TGI is > 100 µM.

And the GI50 (MDA-MB-231 breast)?
Its GI50 is 389 nM.

What about the TGI (MDA-MB-231 breast) of the same compound?
The TGI was > 100 µM.

What about the GI50 (MDA-MB-435 melanoma) of the same compound?
The GI50 was > 100 µM.

And the TGI (MDA-MB-435 melanoma)?
The TGI was > 100 µM.

And the GI50 (MDA-MB-468 breast)?
Its GI50 is > 100 µM.

What about the TGI (MDA-MB-468 breast) of the same compound?
Its TGI is > 100 µM.

And the GI50 (MOLT-4 leukemia)?
Its GI50 is 66.8 µM.

And the TGI (MOLT-4 leukemia)?
Its TGI is > 100 µM.

What about the GI50 (NCI-H226 lung) of the same compound?
Its GI50 is > 100 µM.

And the TGI (NCI-H226 lung)?
The TGI was > 100 µM.

What about the GI50 (NCI-H23 lung) of the same compound?
The GI50 was > 100 µM.

What about the TGI (NCI-H23 lung) of the same compound?
Its TGI is > 100 µM.

What about the GI50 (NCI-H322M lung) of the same compound?
The GI50 was 77.2 nM.

What about the TGI (NCI-H322M lung) of the same compound?
Its TGI is 321 nM.

And the GI50 (NCI-H522 lung)?
Its GI50 is 310 nM.

And the TGI (NCI-H522 lung)?
Its TGI is > 100 µM.

And the GI50 (OVCAR-3 ovarian)?
Its GI50 is > 100 µM.

What about the TGI (OVCAR-3 ovarian) of the same compound?
The TGI was > 100 µM.

What about the GI50 (OVCAR-4 ovarian) of the same compound?
The GI50 was > 100 µM.

And the TGI (OVCAR-4 ovarian)?
The TGI was > 100 µM.

What about the GI50 (OVCAR-5 ovarian) of the same compound?
Its GI50 is > 100 µM.

And the TGI (OVCAR-5 ovarian)?
Its TGI is > 100 µM.

And the GI50 (OVCAR-8 ovarian)?
The GI50 was > 100 µM.

What about the TGI (OVCAR-8 ovarian) of the same compound?
Its TGI is > 100 µM.

And the GI50 (PC-3 prostate)?
The GI50 was > 100 µM.

And the TGI (PC-3 prostate)?
Its TGI is > 100 µM.

And the GI50 (RXF 393 renal)?
Its GI50 is 27.6 nM.

And the TGI (RXF 393 renal)?
The TGI was 110 nM.

What about the GI50 (SF-268 CNS) of the same compound?
The GI50 was 407 nM.

And the TGI (SF-268 CNS)?
The TGI was > 100 µM.

And the GI50 (SF-295 CNS)?
Its GI50 is 1510 nM.

What about the TGI (SF-295 CNS) of the same compound?
Its TGI is > 100 µM.

And the GI50 (SF-539 CNS)?
The GI50 was > 100 µM.

And the TGI (SF-539 CNS)?
Its TGI is > 100 µM.

And the GI50 (SK-MEL-2 melanoma)?
The GI50 was 436 nM.

What about the TGI (SK-MEL-2 melanoma) of the same compound?
The TGI was > 100 µM.

And the GI50 (SK-MEL-28 melanoma)?
Its GI50 is > 100 µM.

What about the TGI (SK-MEL-28 melanoma) of the same compound?
Its TGI is > 100 µM.

And the GI50 (SN12C renal)?
Its GI50 is 39.8 nM.

And the TGI (SN12C renal)?
The TGI was 320 nM.

And the GI50 (SNB-19 CNS)?
Its GI50 is > 100 µM.

What about the TGI (SNB-19 CNS) of the same compound?
The TGI was > 100 µM.

What about the GI50 (SNB-75 CNS) of the same compound?
Its GI50 is > 100 µM.

And the TGI (SNB-75 CNS)?
Its TGI is > 100 µM.

What about the GI50 (SR leukemia) of the same compound?
Its GI50 is 18.8 µM.

And the TGI (SR leukemia)?
The TGI was > 100 µM.

And the GI50 (SW-620 colon)?
The GI50 was > 100 µM.

What about the TGI (SW-620 colon) of the same compound?
Its TGI is > 100 µM.

What about the GI50 (T-47D breast) of the same compound?
Its GI50 is > 100 µM.

And the TGI (T-47D breast)?
Its TGI is > 100 µM.

And the GI50 (TK-10 renal)?
Its GI50 is 310 nM.

What about the TGI (TK-10 renal) of the same compound?
Its TGI is > 100 µM.

What about the GI50 (U251 glioblastoma) of the same compound?
The GI50 was 119 nM.

What about the TGI (U251 glioblastoma) of the same compound?
The TGI was > 100 µM.

What about the GI50 (UACC-257 melanoma) of the same compound?
The GI50 was > 100 µM.

What about the TGI (UACC-257 melanoma) of the same compound?
Its TGI is > 100 µM.

And the GI50 (UACC-62 melanoma)?
Its GI50 is > 100 µM.

What about the TGI (UACC-62 melanoma) of the same compound?
The TGI was > 100 µM.

What about the GI50 (UO-31 renal) of the same compound?
Its GI50 is > 100 µM.

What about the TGI (UO-31 renal) of the same compound?
The TGI was > 100 µM.
